{"source": "patent US12636285B2", "about": "(ViiV Healthcare Company, priority 2019, dated 2026)", "key": {"[1]": {"test": "QT cross-over trial of oral cabotegravir in healthy subjects", "type": "in vivo, human", "conditions": "oral cabotegravir 150 mg every 12 hours"}, "OAT3": {"target": "T1, OAT3 (Homo sapiens, UniProt Q8TCC7)", "T1 sequence (Q8TCC7 1-542)": "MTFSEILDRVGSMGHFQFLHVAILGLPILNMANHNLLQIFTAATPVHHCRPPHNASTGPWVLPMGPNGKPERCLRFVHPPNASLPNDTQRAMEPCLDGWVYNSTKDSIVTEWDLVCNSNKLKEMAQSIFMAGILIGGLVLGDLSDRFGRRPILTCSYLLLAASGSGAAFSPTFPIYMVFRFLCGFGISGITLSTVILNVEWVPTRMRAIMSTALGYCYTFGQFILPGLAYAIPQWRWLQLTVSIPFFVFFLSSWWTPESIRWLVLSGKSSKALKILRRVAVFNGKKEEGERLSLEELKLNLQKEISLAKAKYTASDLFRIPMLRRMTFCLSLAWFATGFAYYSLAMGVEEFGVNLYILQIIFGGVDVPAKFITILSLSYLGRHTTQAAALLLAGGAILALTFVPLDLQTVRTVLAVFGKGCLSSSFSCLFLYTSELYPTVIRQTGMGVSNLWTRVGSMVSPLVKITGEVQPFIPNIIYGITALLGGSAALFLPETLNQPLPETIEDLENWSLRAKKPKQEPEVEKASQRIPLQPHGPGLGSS", "test": "In vitro transporter inhibition, OAT3", "type": "in vitro ADME", "description": "(§1) However, based on PBPK modeling, no interaction with OAT substrates is expected at clinically relevant concentrations."}, "[2]": {"test": "Genotoxicity: bacterial reverse mutation assay, mouse lymphoma assay, in vivo rodent micronucleus assay"}, "[3]": {"test": "Reproduction and development studies in rats"}, "Protein-adjusted IC90": {"test": "Protein-adjusted IC90", "type": "cell-based", "conditions": "read-out: protein-adjusted IC90 (PA-IC90)", "description": "Mar. 4-7, 2019, Seattle, WA.)."}, "[4]": {"test": "Pharmacokinetic properties of the components of the Combination (Table 6)", "parameters": "species or system human", "conditions": "in vivo"}, "[5]": {"target": "T2, renal organic anion transporters (OAT)1 (Homo sapiens, UniProt Q4U2R8)", "T2 sequence (Q4U2R8 1-563)": "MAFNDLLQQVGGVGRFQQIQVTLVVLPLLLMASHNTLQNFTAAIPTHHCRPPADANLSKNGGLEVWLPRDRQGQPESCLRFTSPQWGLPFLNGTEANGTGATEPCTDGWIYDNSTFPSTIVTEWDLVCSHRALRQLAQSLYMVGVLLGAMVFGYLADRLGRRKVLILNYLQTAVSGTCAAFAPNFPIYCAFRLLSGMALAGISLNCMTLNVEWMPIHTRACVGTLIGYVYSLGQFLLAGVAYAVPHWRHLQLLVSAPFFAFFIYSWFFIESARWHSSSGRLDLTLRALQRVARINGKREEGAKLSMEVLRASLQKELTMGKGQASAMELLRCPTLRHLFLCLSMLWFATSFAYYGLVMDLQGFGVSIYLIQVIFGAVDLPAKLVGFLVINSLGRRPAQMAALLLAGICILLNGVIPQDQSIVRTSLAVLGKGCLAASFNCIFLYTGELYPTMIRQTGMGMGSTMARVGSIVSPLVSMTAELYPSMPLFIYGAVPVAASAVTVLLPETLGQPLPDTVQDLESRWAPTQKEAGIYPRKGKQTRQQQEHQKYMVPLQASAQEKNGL", "test": "In vitro transporter inhibition, OAT1", "type": "in vitro ADME", "description": "as §1"}, "[6]": {"test": "Pharmacokinetics in specific populations (renal, hepatic impairment, UGT1A1 genotype)", "type": "in vivo, human", "conditions": "for pharmacokinetic differences vs matching healthy subjects: oral cabotegravir", "description": "No dosage adjustment is necessary for patients with mild to severe renal impairment (not on dialysis).\nNo dosage adjustment is necessary for patients with mild to moderate hepatic impairment (Child-Pugh Score A or B).\nNo dose adjustment is required in subjects with UGT1A1 polymorphisms."}, "[7]": {"test_system": "recombinant HIV-1 strain NL432 viruses", "type": "cell-based"}, "[8]": {"test": "Multiple-dose pharmacokinetics after monthly IM injections, population PK post-hoc estimates FLAIR and ATLAS", "type": "in vivo, human", "conditions": "400-mg monthly IM injection"}, "[9]": {"test_system": "OATP1B1, OATP1B3, OCT1, P-gp, BCRP", "test": "In vitro transporter substrate assessment", "type": "in vitro ADME"}, "CYP1A2, CYP2B6, CYP3A4": {"test_system": "CYP1A2, CYP2B6, CYP3A4", "test": "In vitro CYP induction", "type": "in vitro ADME"}, "[10]": {"test": "Lactating rats, exposure of pups through milk", "type": "in vivo, rat", "conditions": "administered to lactating rats", "description": "The Centers for Disease Control and Prevention recommends that HIV-1-infected mothers in the United States not breastfeed their infants to avoid risking postnatal transmission of HIV-1 infection. It is not known if the components of the Combination are present in human breast milk, affect human milk production, or have effects on the breastfed infant. […] Animal Data: Cabotegravir: […] Rilpivirine: […]"}, "[11]": {"test": "Fertility studies in rats", "type": "in vivo, rat", "conditions": "oral, 1,000 mg/kg/day up to 26 weeks, male and female rats"}, "clinical HIV-2 isolates": {"test_system": "clinical HIV-2 isolates", "test": "Antiviral activity against clinical HIV-2 isolates", "type": "cell-based", "conditions": "Human immunodeficiency virus 2, n=4"}, "[12]": {"test": "Mass balance studies, single-dose oral [14C] drug", "type": "in vivo, human", "conditions": "single-dose oral [14C] drug"}, "[13]": {"test_system": "CYP1A2, 2A6, 2B6, 2C8, 2C9, 2C19, 2D6, 3A4; UGT1A1, 1A3, 1A4, 1A6, 1A9, 2B4, 2B7, 2B15, 2B17; P-gp; BCRP; BSEP; OCT1, OCT2; OATP1B1, OATP1B3; MATE 1, MATE 2-K …", "test": "Inhibition of enzymes and transporters", "type": "in vitro ADME"}}, "note": "Where two headings read alike, the source gives them in different places.", "data": [{"smiles": "C[C@H]1CO[C@@H]2Cn3cc(C(=O)NCc4ccc(F)cc4F)c(=O)c(O)c3C(=O)N12", "note": "[Cabotegravir, (3S,11aR)-N-[(2,4-difluorophenyl)methyl]-6-hydroxy-3-methyl-5,7-dioxo-2,3,5,7,11,11a-hexahydro[1,3]oxazolo[3,2-a]pyrido[1,2-d]pyrazine-8-carboxamide]", "values": [{"measurement": "QTc interval over 24 hours post dose", "setting": "[1]", "result": "did not prolong the QTc interval"}, {"measurement": "maximum time-matched mean QTc change (QTcF), baseline and placebo adjusted", "setting": "[1]; 3 doses", "result": 2.62, "unit": "ms"}, {"measurement": "IC50", "setting": "OAT3", "result": 410, "unit": "nM"}, {"measurement": "genotoxicity", "setting": "[2]", "result": "not genotoxic"}, {"measurement": "effect on parturition, prenatal and postnatal development study", "setting": "[3]; oral 1,000 mg/kg/day", "result": "delayed the onset of parturition"}, {"measurement": "embryo-fetal development in rats", "setting": "[3]; oral 1,000 mg/kg/day, in the presence of maternal toxicity", "result": "alterations in fetal growth (decreased body weights)"}, {"measurement": "placental transfer", "setting": "[3]; pregnant rats", "result": "crosses the placenta"}, {"measurement": "IC90", "setting": "Protein-adjusted IC90", "result": 0.166, "unit": "µg/mL"}, {"measurement": "Tmax", "setting": "[4]; human, im, intramuscular injection, read-out: Tmax, median (converted)", "result": 7, "unit": "days"}, {"measurement": "half-life", "setting": "[4]; human, im, intramuscular injection, read-out: t1/2 (absorption rate limited), mean", "result": "39.2 to 80.5", "unit": "days"}, {"measurement": "Major route of elimination", "setting": "[4]", "result": "Metabolism"}, {"measurement": "Metabolic pathways", "setting": "[4]", "result": "UGT1A1"}, {"measurement": "Metabolic pathways", "setting": "[4]; minor pathway", "result": "UGT1A9 (minor)"}, {"measurement": "IC50", "setting": "[5]", "result": 810, "unit": "nM"}, {"measurement": "increase in mean steady-state AUC, Cmax, and Ctau vs normal UGT1A1 metabolism", "setting": "[6]; UGT1A1 genotypes conferring poor metabolism, long-acting injection", "result": 1.2, "unit": "fold"}, {"measurement": "pharmacokinetic differences vs matching healthy subjects", "setting": "[6]; moderate hepatic impairment", "result": "No clinically important pharmacokinetic differences"}, {"measurement": "pharmacokinetic differences vs matching healthy subjects", "setting": "[6]; severe renal impairment (CrCL<30 mL/min, not on dialysis)", "result": "No clinically important pharmacokinetic differences"}, {"measurement": "activity against viruses with NNRTI substitutions K103N or Y188L, or NRTI substitutions M184V, D67N/K70R/T215Y, or V751/F77L/F116Y/Q151M", "setting": "[7]", "result": "active"}, {"measurement": "reduction in susceptibility", "setting": "[7]; E138K+Q148K", "result": 81, "unit": "fold"}, {"measurement": "reduction in susceptibility", "setting": "[7]; Q148R+N155H", "result": 61, "unit": "fold"}, {"measurement": "Ctrough, geometric mean", "setting": "[8]", "result": 2900, "unit": "ng/mL"}, {"measurement": "AUC", "setting": "[8]; human, in vivo, read-out: AUCtau, geometric mean", "result": 2460, "unit": "µg·h/mL"}, {"measurement": "Cmax", "setting": "[8]; human, in vivo, read-out: Cmax, geometric mean", "result": 4200, "unit": "ng/mL"}, {"measurement": "substrate of OATP1B1, OATP1B3, or OCT1", "setting": "[9]", "result": "not a substrate"}, {"measurement": "substrate of P-gp and BCRP", "setting": "[9]", "result": "is a substrate"}, {"measurement": "induction of CYP1A2, CYP2B6, or CYP3A4", "setting": "CYP1A2, CYP2B6, CYP3A4", "result": "did not induce"}, {"measurement": "presence in milk", "setting": "[10]", "result": "present in milk"}, {"measurement": "effects on reproductive organs, spermatogenesis, mating or fertility", "setting": "[11]", "result": "did not cause adverse effects"}, {"measurement": "EC50", "setting": "clinical HIV-2 isolates; read-out: EC50 range", "result": "0.1 to 0.14", "unit": "nM"}, {"measurement": "EC50", "setting": "clinical HIV-2 isolates; read-out: median EC50", "result": 0.12, "unit": "nM"}, {"measurement": "% of dose excreted as total 14C in feces", "setting": "[12]", "result": 59, "unit": "%"}, {"measurement": "% of dose excreted as total 14C in urine", "setting": "[12]", "result": 27, "unit": "%"}, {"measurement": "% of dose excreted as unchanged drug in feces", "setting": "[12]", "result": 47, "unit": "%"}, {"measurement": "% of dose excreted as unchanged drug in urine", "setting": "[12]", "result": 0, "unit": "%"}, {"measurement": "inhibition of listed CYP, UGT enzymes and transporters", "setting": "[13]", "result": "not a clinically relevant inhibitor"}]}]}
